Assay results published in patent US20230301300A1, “HERBICIDAL COMPOSITIONS” (SYNGENTA CROP PROTECTION AG, priority 2020, published 2023).

Tests used:
Test in all cases: B2 Post-Emergence Efficacy - Test 2
Format in all cases: in vivo
Orysa sativa (ORYSA) = conditions: 15 days after application; for Herbicidal activity ORYSA: 0-100 scale; for Herbicidal activity on a 0-100 scale, ORYSA: 0=no damage, 100=total kill
In short: (§1)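 Glasshouse post-emergence test: plants sown in standard soil, grown 12 days (24/18 °C or 20/16 °C day/night; 16 h light; 65% humidity), sprayed once with an aqueous IF50-based formulation including 0.2% v/v Genapol X080. Visual injury, 0–100, recorded 15 days post-application.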

Setaria faberi (SETFA) = conditions: 15 days after application, 0=no damage, 100=total kill
In short: as §1

Galium aparine (GALAP) = conditions: 15 days after application, 0-100 scale
In short: as §1

[1] = test system: Brachiaria plantaginea (BRAPL); conditions: 15 days after application, 0=no damage, 100=total kill
In short: as §1

Poa annua (POAAN) = conditions: 15 days after application, 0-100 scale
In short: as §1

Eleisine indica (ELEIN) = conditions: 15 days after application, 0=no damage, 100=total kill
In short: as §1

Zea mays (ZEAMX) = conditions: 15 days after application; for Herbicidal activity ZEAMX: 0-100 scale; for Herbicidal activity on a 0-100 scale, ZEAMX: 0=no damage, 100=total kill
In short: as §1

Glycine max (GLXMA) = conditions: 15 days after application; for Herbicidal activity GLXMA: 0-100 scale; for Herbicidal activity on a 0-100 scale, GLXMA: 0=no damage, 100=total kill
In short: as §1

Cc1nn(C)c(=O)c(-c2c(F)ccc(Cl)c2CCc2ccc(C#N)cc2)c1O [Compound 1.024, 4-[3-chloro-6-fluoro-2-[2-[4-(cyano)phenyl]ethyl]phenyl]-5-hydroxy-2,6-dimethyl-pyridazin-3-one]
Herbicidal activity ORYSA (Orysa sativa (ORYSA); 15 g/Ha): 0 | Herbicidal activity on a 0-100 scale, ORYSA (Orysa sativa (ORYSA); 15 g/Ha): 0 | Herbicidal activity ORYSA (Orysa sativa (ORYSA); 30 g/Ha): 0 | Herbicidal activity on a 0-100 scale, ORYSA (Orysa sativa (ORYSA); 30 g/Ha): 0 | Herbicidal activity ORYSA (Orysa sativa (ORYSA); 60 g/Ha): 0 | Herbicidal activity on a 0-100 scale, ORYSA (Orysa sativa (ORYSA); 60 g/Ha): 0 | Herbicidal activity ORYSA (Orysa sativa (ORYSA); 125 g/Ha): 0 | Herbicidal activity on a 0-100 scale, ORYSA (Orysa sativa (ORYSA); 125 g/Ha): 0 | Herbicidal activity ORYSA (Orysa sativa (ORYSA); 250 g/Ha): 20 | Herbicidal activity on a 0-100 scale, ORYSA (Orysa sativa (ORYSA); 250 g/Ha): 20 | Herbicidal activity ORYSA (Orysa sativa (ORYSA); 500 g/Ha): 40 | Herbicidal activity on a 0-100 scale, ORYSA (Orysa sativa (ORYSA); 500 g/Ha): 40 | Herbicidal activity on a 0-100 scale, SETFA (Setaria faberi (SETFA); 15 g/Ha): 20 | Herbicidal activity on a 0-100 scale, SETFA (Setaria faberi (SETFA); 30 g/Ha): 70 | Herbicidal activity on a 0-100 scale, SETFA (Setaria faberi (SETFA); 60 g/Ha): 80 | Herbicidal activity on a 0-100 scale, SETFA (Setaria faberi (SETFA); 125 g/Ha): 90 | Herbicidal activity on a 0-100 scale, SETFA (Setaria faberi (SETFA); 250 g/Ha): 90 | Herbicidal activity on a 0-100 scale, SETFA (Setaria faberi (SETFA); 500 g/Ha): 100 | Herbicidal activity GALAP (Galium aparine (GALAP); 30 g/Ha): 20 | Herbicidal activity GALAP (Galium aparine (GALAP); 60 g/Ha): 20 | Herbicidal activity GALAP (Galium aparine (GALAP); 125 g/Ha): 60 | Herbicidal activity GALAP (Galium aparine (GALAP); 250 g/Ha): 90 | Herbicidal activity GALAP (Galium aparine (GALAP); 500 g/Ha): 90 | Herbicidal activity on a 0-100 scale, BRAPL ([1]; 15 g/Ha): 30 | Herbicidal activity on a 0-100 scale, BRAPL ([1]; 30 g/Ha): 60 | Herbicidal activity on a 0-100 scale, BRAPL ([1]; 60 g/Ha): 70 | Herbicidal activity on a 0-100 scale, BRAPL ([1]; 125 g/Ha): 70 | Herbicidal activity on a 0-100 scale, BRAPL ([1]; 250 g/Ha): 70 | Herbicidal activity on a 0-100 scale, BRAPL ([1]; 500 g/Ha): 90 | Herbicidal activity POAAN (Poa annua (POAAN); 15 g/Ha): 10 | Herbicidal activity POAAN (Poa annua (POAAN); 30 g/Ha): 20 | Herbicidal activity POAAN (Poa annua (POAAN); 60 g/Ha): 30 | Herbicidal activity POAAN (Poa annua (POAAN); 125 g/Ha): 80 | Herbicidal activity POAAN (Poa annua (POAAN); 250 g/Ha): 80 | Herbicidal activity POAAN (Poa annua (POAAN); 500 g/Ha): 90 | Herbicidal activity on a 0-100 scale, ELEIN (Eleisine indica (ELEIN); 15 g/Ha): 0 | Herbicidal activity on a 0-100 scale, ELEIN (Eleisine indica (ELEIN); 30 g/Ha): 40 | Herbicidal activity on a 0-100 scale, ELEIN (Eleisine indica (ELEIN); 60 g/Ha): 40 | Herbicidal activity on a 0-100 scale, ELEIN (Eleisine indica (ELEIN); 125 g/Ha): 60 | Herbicidal activity on a 0-100 scale, ELEIN (Eleisine indica (ELEIN); 250 g/Ha): 80 | Herbicidal activity on a 0-100 scale, ELEIN (Eleisine indica (ELEIN); 500 g/Ha): 80 | Herbicidal activity ZEAMX (Zea mays (ZEAMX); 15 g/Ha): 0 | Herbicidal activity on a 0-100 scale, ZEAMX (Zea mays (ZEAMX); 15 g/Ha): 0 | Herbicidal activity ZEAMX (Zea mays (ZEAMX); 30 g/Ha): 10 | Herbicidal activity on a 0-100 scale, ZEAMX (Zea mays (ZEAMX); 30 g/Ha): 10 | Herbicidal activity ZEAMX (Zea mays (ZEAMX); 60 g/Ha): 20 | Herbicidal activity on a 0-100 scale, ZEAMX (Zea mays (ZEAMX); 60 g/Ha): 20 | Herbicidal activity ZEAMX (Zea mays (ZEAMX); 125 g/Ha): 40 | Herbicidal activity on a 0-100 scale, ZEAMX (Zea mays (ZEAMX); 125 g/Ha): 40 | Herbicidal activity ZEAMX (Zea mays (ZEAMX); 250 g/Ha): 70 | Herbicidal activity on a 0-100 scale, ZEAMX (Zea mays (ZEAMX); 250 g/Ha): 70 | Herbicidal activity ZEAMX (Zea mays (ZEAMX); 500 g/Ha): 100 | Herbicidal activity on a 0-100 scale, ZEAMX (Zea mays (ZEAMX); 500 g/Ha): 100 | Herbicidal activity GLXMA (Glycine max (GLXMA); 15 g/Ha): 70 | Herbicidal activity on a 0-100 scale, GLXMA (Glycine max (GLXMA); 15 g/Ha): 70 | Herbicidal activity GLXMA (Glycine max (GLXMA); 30 g/Ha): 80 | Herbicidal activity on a 0-100 scale, GLXMA (Glycine max (GLXMA); 30 g/Ha): 80 | Herbicidal activity GLXMA (Glycine max (GLXMA); 60 g/Ha): 90
